For orientation: IC50 means the concentration that gives 50% inhibition.

Experimental findings from US20100298347A1, “SUBSTITUTED 2-NAPHTHOIC ACIDS AS ANTAGONISTS OF GPR105 ACTIVITY” (MERCK FROSST CANADA LTD, priority 2007, published 2010) are described below.

The test concerns the target T1, chimpanzee GPR105 protein (Pan troglodytes, UniProt A0A2J8P2M1).
T1 construct: expressed in transfected cells
T1 sequence (A0A2J8P2M1 1-338): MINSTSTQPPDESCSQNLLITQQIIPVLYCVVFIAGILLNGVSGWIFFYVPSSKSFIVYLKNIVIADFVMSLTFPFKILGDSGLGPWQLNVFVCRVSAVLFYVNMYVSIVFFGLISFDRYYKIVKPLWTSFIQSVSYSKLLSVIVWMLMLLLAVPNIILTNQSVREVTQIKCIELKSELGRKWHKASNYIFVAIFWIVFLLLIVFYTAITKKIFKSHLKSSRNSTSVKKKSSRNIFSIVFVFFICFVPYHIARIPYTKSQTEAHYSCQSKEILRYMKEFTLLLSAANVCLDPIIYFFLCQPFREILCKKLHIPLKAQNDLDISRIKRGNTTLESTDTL
The experiment in a line: Cell-Binding Assay: FLIPR calcium signaling in HEK/GPR105/Gqi5 cells, inhibition of UDP-glucose agonist. The test is classed as cell-based. As to conditions: HEK cells expressing chimpanzee GPR105 and Gqi5; UDP-glucose agonist at EC80; inhibition of Ca2+ signaling by FLIPR. The protocol:
A stable HEK clonal cell line expressing the chimpanzee GPR105 protein and the chimeric G protein Gqi5 was developed. The chimeric Gqi5 forces the coupling of GPR105 through the Gq (calcium) pathway and allows for monitoring of calcium signaling using a calcium binding fluorescent dye and the FLIPR (fluorometric imaging plate reader, MDS Sciex). 12,500 HEK/GPR105/Gqi5 expressing cells were plated in 25 μL Dulbecco's Modified Eagle's Medium (DMEM) containing 10% fetal bovine serum (FBS) onto 384-well, poly-D-lysine coated plates. Cells were incubated overnight at 37° C. and 5% CO2 to form a monolayer. On the following day, 30 μl, of fluorescent no-wash dye was added to the cell monolayer and the plate was incubated for […] at 37° C., 5% CO2. […] of compound in 100% DMSO was added to cell/dye incubation using acoustic dispensing (Echo™, Labcyte). Following a 20 minute incubation of compound at room temperature, 6.25 μL of UDP-glucose agonist (at EC80) in Hank's Balanced Salt Solution (HBSS) containing 20 mM Hepes was added to cells and Ca^2+ signaling was monitored by FLIPR. Quantitation of the % inhibition of Ca^2+ signaling by antagonist was calculated using the maximum fluorescent signal detected. IC50's for the compounds of structural formula (I) were calculated as follows:
a.) Basal=incubation of cells+DMSO+Buffer; b.) EC80=incubation of cells of DMSO+agonist to achieve 80% maximum stimulation of calcium release; c.) Compound=incubation of cells+antagonist in DMSO+EC80 agonist; d.) Calcium release monitored by Fluorescence (RFU relative fluorescence units) using the FLIPR; e.) The percentage of inhibition was calculated according to the equation: (1−(compound sample−Basal)/(EC80−Basal))×100; f.) The percentage of inhibition at each dose was plotted, the Four Parameter Logistic Fit performed to draw the curve and the IC50 is the compound dose where the % inhibition=50%.
For the compound `O=C(O)c1cc(-c2ccc(C3CCNCC3)cc2)c2ccc(-c3ccc(C(F)(F)F)cc3)cc2c1`, the 50% inhibitory concentration (IC50) is 2.2 nM.
Consider `O=C(O)c1cc(-c2ccc(-c3cn4cccnc4n3)cc2)c2ccc(-c3ccc(C(F)(F)F)cc3)cc2c1`, for which the 50% inhibitory concentration (IC50) amounted to 3 nM.
Take `O=C(O)c1cc(-c2ccc([C@@H](O)C(F)F)cc2)c2ccc(-c3ccc(C(F)(F)F)cc3)cc2c1`: the IC50 came out at 5.4 nM.
As to `O=C(O)c1cc(-c2ccc(C3(O)CCNCC3)cc2)c2ccc(-c3ccc(C(F)(F)F)cc3)cc2c1`, the IC50 is 6.3 nM.
In the case of `O=C(O)c1cc(-c2csc(C(O)C(F)F)c2)c2ccc(-c3ccc(C(F)(F)F)cc3)cc2c1` (centres unmarked) it was 7.1 nM; in that of `O=C(O)c1cc(-c2ccsc2)c2ccc(OCc3c(Cl)ccc(Cl)c3Cl)cc2c1`, 7.3 nM; in that of `O=C(O)c1cc(-c2ccsc2)c2ccc(OCc3c(Cl)cccc3Cl)cc2c1`, 9.4 nM.
Regarding `O=C(O)c1cc(-c2ccsc2)c2ccc(OCc3c(F)cc(F)cc3F)cc2c1`, the half-maximal inhibitory concentration (IC50) amounted to 10.5 nM.
In the case of `Cc1cccc(C)c1COc1ccc2c(-c3ccc(C(=O)O)cc3)cc(C(=O)O)cc2c1`, the IC50 turned out to be 11 nM.
In the case of `O=C(O)c1cc(-c2ccc([C@@H](O)C(F)(F)F)cc2)c2ccc(-c3ccc(C(F)(F)F)cc3)cc2c1` it was 11.3 nM; in that of `Cc1cccc(C)c1COc1ccc2c(-c3ccc(S(C)(=O)=O)cc3)cc(C(=O)O)cc2c1`, 11.9 nM; in that of `CS(=O)(=O)c1cc(-c2cc(C(=O)O)cc3cc(-c4ccc(C(F)(F)F)cc4)ccc23)cs1`, 12.2 nM.
In the case of `CSc1ccc(-c2ccc3c(-c4ccc([C@@H](O)C(F)F)cc4)cc(C(=O)O)cc3c2)cc1`, the IC50 was 12.4 nM.
In the case of `O=C(O)c1cc(-c2ccsc2)c2ccc(OCc3c(F)cccc3Cl)cc2c1` it was 12.5 nM; in that of `O=C(O)c1cc(-c2ccsc2)c2ccc(-c3ccc(OC(F)(F)F)cc3)cc2c1`, 12.7 nM; in that of `O=C(O)c1cc(-c2ccc(C(O)C(F)(F)F)cc2)c2ccc(-c3ccc(C(F)(F)F)cc3)cc2c1` (centres unmarked), 13 nM.
With `O=C(O)c1cc(-c2ccc(-c3nnc[nH]3)cc2)c2ccc(-c3ccc(C(F)(F)F)cc3)cc2c1`, the concentration for half-maximal inhibition (IC50) came to 13.3 nM.
In the case of `C[S+]([O-])c1ccc(-c2cc(C(=O)O)cc3cc(-c4ccc(C(F)(F)F)cc4)ccc23)cc1` (centres unmarked) it was 13.9 nM.
In the case of `O=C(O)c1cc(-c2ccc([C@@H](O)C(F)F)cc2)c2ccc(-c3ccc(F)cc3)cc2c1`, the IC50 was 14 nM.
Take `COc1ccccc1COc1cc(C(=O)O)cc2cc(OCc3c(C)cccc3C)ccc12`: the concentration for half-maximal inhibition (IC50) turned out to be 14.1 nM.
In the case of `Cc1cc(F)cc(C)c1COc1ccc2c(-c3ccsc3)cc(C(=O)O)cc2c1` it was 14.4 nM; in that of `Cc1cccc(C)c1COc1ccc2c(-c3ccc(C(C)(C)O)cc3)cc(C(=O)O)cc2c1`, 16.1 nM.
In the case of `Cc1cccc(C)c1COc1ccc2c(-c3ccsc3)cc(C(=O)O)cc2c1` it was 16.3 nM.
With `Cc1cccc(C)c1COc1ccc2c(-c3ccc(CO)cc3)cc(C(=O)O)cc2c1`, the 50% inhibitory concentration (IC50) is 16.6 nM.
For the compound `Cc1ccc(C(F)(F)F)cc1COc1ccc2c(-c3ccsc3)cc(C(=O)O)cc2c1`, the IC50 came out at 16.8 nM.
In the case of `CC(=O)c1ccc(-c2cc(C(=O)O)cc3cc(OCc4c(C)cccc4C)ccc23)cc1`, the concentration for half-maximal inhibition (IC50) came out at 17.5 nM.
Turning to `O=C(O)c1cc(-c2ccsc2)c2ccc(OCc3c(Cl)cccc3Br)cc2c1`, the 50% inhibitory concentration (IC50) was 17.8 nM.
As for `Cc1cccc(C)c1COc1ccc2c(-c3ccc(O)cc3)cc(C(=O)O)cc2c1`, the half-maximal inhibitory concentration (IC50) was found to be 18.4 nM.
As for `Cc1cccc(C)c1COc1ccc2c(-c3ccc4c(c3)OCO4)cc(C(=O)O)cc2c1`, the half-inhibitory concentration (IC50) came to 19.4 nM.
In the case of `Cc1ccc(Cl)c(COc2ccc3c(-c4ccsc4)cc(C(=O)O)cc3c2)c1F` it was 20.3 nM.
Turning to `Cc1cccc(C)c1COc1ccc2c(OCc3ccccc3)cc(C(=O)O)cc2c1`, the IC50 came to 21.2 nM.
In the case of `O=C(O)c1cc(-c2ccccc2)c2ccc(OCc3c(Cl)ccc(Cl)c3Cl)cc2c1` it was 21.7 nM; in that of `Cc1cccc(C)c1COc1ccc2c(-c3ccc(C=O)cc3)cc(C(=O)O)cc2c1`, 22.5 nM; in that of `O=C(O)c1cc(-c2ccsc2)c2ccc(OCc3c(F)cccc3F)cc2c1`, 22.6 nM.
In the case of `CS(=O)(=O)c1cc(-c2cc(C(=O)O)cc3cc(-c4ccc(OC(F)(F)F)cc4)ccc23)cs1` it was 23.9 nM; in that of `O=C(O)c1cc(-c2ccsc2)c2ccc(OCc3c(Br)cccc3Br)cc2c1`, 24.3 nM; in that of `O=C(O)c1cc2cc(-c3ccc(C(F)(F)F)cc3)ccc2c(-c2ccc([C@@H](O)C(F)F)cc2)c1F`, 24.8 nM.
Regarding `O=C(O)c1cc2cc(-c3ccc(C(F)(F)F)cc3)ccc2c(-c2ccc([C@H](O)C(F)(F)F)cc2)c1F`, the IC50 was determined as 25.5 nM.
For `O=C(O)c1cc(-c2ccsc2)c2ccc(OCc3cc(C(F)(F)F)ccc3Cl)cc2c1`, the IC50 stood at 26 nM.
In the case of `O=C(O)c1cc(-c2ccsc2)c2ccc(OCc3c(Cl)cncc3Cl)cc2c1` [drawing 14] it was 7.5 nM.
In the case of `O=C(O)c1cc(-c2ccsc2)c2ccc(OCc3c(Cl)cncc3Cl)cc2c1` [drawing 30] it was 15.1 nM.
